Experimental data reported in patent publication US8546381B2, “Bridged heterocyclic compounds and methods of use” (Medivation Technologies, Inc., priority 2008, dated 2013).

Assays:
[1] = target: T1, human recombinant serotonin (5-Hydroxytryptamine) 5-HT6 receptor (Homo sapiens, UniProt P50406); assay: Serotonin 5-HT6 radioligand binding ([3H]LSD); conditions: read-out: Serotonin 5-HT6, inhibition of ligand binding (1 μM)
T1 construct: expressed in transfected cells; host or cells: human HeLa cells
Protocol: To evaluate in radioligand binding assays the activity of compounds of the invention, human recombinant serotonin (5-Hydroxytryptamine) 5-HT6 receptor expressed in human HeLa cells (Monsma, F. J. Jr. et al., Mol. Pharmacol. 43:320, 1993) in a modified Tris-HCl buffer (50 mM Tris-HCl, pH 7.4, 150 mM NaCl, 2 mM Ascorbic Acid, 0.001% BSA) was used. Compounds of the invention were incubated with 1.5 nM [3H]Lysergic acid diethylamide (LSD) for 120 minutes at 37° C. Non-specific binding was estimated in the presence of 5 μM Serotonin (5-HT). Receptor proteins were filtered and washed, the filters were then counted to determine [3H]LSD specifically bound. Compounds were screened at 1 μM or lower, using 1% DMSO as vehicle. Biochemical assay results are presented as the percent inhibition of specific binding in Table 4.

[2] = target: T2, human recombinant serotonin (5-Hydroxytryptamine) 5-HT2C receptor (Homo sapiens, UniProt P28335); assay: Serotonin 5-HT2C radioligand binding ([3H]Mesulergine); conditions: read-out: Serotonin 5-HT2C, inhibition of ligand binding (1 μM)
T2 construct: expressed in transfected cells; host or cells: CHO-K1 cells
T2 sequence (P28335 33-458): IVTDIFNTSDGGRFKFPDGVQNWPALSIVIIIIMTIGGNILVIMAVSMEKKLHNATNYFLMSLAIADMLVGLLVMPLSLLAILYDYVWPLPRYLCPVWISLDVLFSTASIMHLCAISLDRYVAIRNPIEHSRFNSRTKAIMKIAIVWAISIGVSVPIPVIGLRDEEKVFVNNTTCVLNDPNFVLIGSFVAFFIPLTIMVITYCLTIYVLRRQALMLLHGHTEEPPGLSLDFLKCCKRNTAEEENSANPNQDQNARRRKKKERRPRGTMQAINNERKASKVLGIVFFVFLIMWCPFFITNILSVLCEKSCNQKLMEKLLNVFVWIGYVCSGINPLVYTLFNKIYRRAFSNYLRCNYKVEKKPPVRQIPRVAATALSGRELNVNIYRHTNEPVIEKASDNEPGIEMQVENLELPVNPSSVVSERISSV
Protocol: To evaluate in radioligand binding assays the activity of compounds of the invention, human recombinant serotonin (5-Hydroxytryptamine) 5-HT2C receptor expressed in Chinese hamster ovary (CHO-K1) cells (Wolf, W. A. and Schutz, J. S., J. Neurochem. 69:1449, 1997) in a modified Tris-HCl buffer (50 mM Tris-HCl, pH 7.4, 0.1% Ascorbic Acid, 10 μM Pargyline) was used. Compounds of the invention were incubated with 1 nM [^3H]Mesulergine for 60 minutes at 25° C. Non-specific binding was estimated in the presence of 1 μM Mianserin. Receptor proteins were filtered and washed, the filters were then counted to determine [^3H]Mesulergine specifically bound. Compounds were screened at 1 μM or lower, using 1% DMSO as vehicle. Biochemical assay results are presented as the percent inhibition of specific binding in Table 4.

[3] = target: T3, human recombinant histamine H1 receptor (Homo sapiens, UniProt P35367); assay: Histamine H1 radioligand binding ([3H]Pyrilamine); conditions: compound at 1 μM; inhibition of specific [3H]Pyrilamine binding; read-out: Histamine Binding (1 μM) H1, Percentage Inhibition
T3 construct: expressed in transfected cells; host or cells: CHO cells
Protocol: To evaluate in radioligand binding assays the activity of compounds of the invention, human recombinant histamine H1 receptor expressed in Chinese hamster ovary (CHO) cells (De Backer, M. D. et al., Biochem. Biophys. Res. Comm. 197(3):1601, 1993) in a modified Tris-HCl buffer (50 mM Tris-HCl, pH 7.4, 2 mM MgCl2, 100 mM NaCl, 250 mM Sucrose) was used. Compounds of the invention were incubated with 1.2 nM [^3H]Pyrilamine for 180 minutes at 25° C. Non-specific binding was estimated in the presence of 1 μM pyrilamine. Receptor proteins were filtered and washed, the filters were then counted to determine [^3H]Pyrilamine specifically bound. Compounds were screened at 1 μM or lower, using 1% DMSO as vehicle. Biochemical assay results are presented as the percent inhibition of specific binding in Table 2.

[4] = target: T4, human recombinant serotonin (5-Hydroxytryptamine) 5-HT2A receptor (Homo sapiens, UniProt P28223); assay: Serotonin 5-HT2A radioligand binding ([3H]Ketanserin); conditions: read-out: Serotonin 5-HT2A, inhibition of ligand binding (1 μM)
T4 construct: expressed in transfected cells; host or cells: CHO-K1 cells
Protocol: To evaluate in radioligand binding assays the activity of compounds of the invention, human recombinant serotonin (5-Hydroxytryptamine) 5-HT2A receptor expressed in Chinese hamster ovary (CHO-K1) cells (Bonhaus, D. W. et al. Br. J. Pharmacol. 115:622, 1995; Saucier, C. and Albert, P. R., J. Neurochem. 68:1998, 1997) in a 50 mM Tris-HCl buffer, pH 7.4, was used. Compounds of the invention were incubated with 0.5 nM [^3H]Ketanserin for 60 minutes at 25° C. Non-specific binding was estimated in the presence of 1 μM Mianserin. Receptor proteins were filtered and washed, the filters were then counted to determine [^3H]Ketanserin specifically bound. Compounds were screened at 1 μM or lower, using 1% DMSO as vehicle. Biochemical assay results are presented as the percent inhibition of specific binding in Table 4.

T4 sequence (P28223 whole entry): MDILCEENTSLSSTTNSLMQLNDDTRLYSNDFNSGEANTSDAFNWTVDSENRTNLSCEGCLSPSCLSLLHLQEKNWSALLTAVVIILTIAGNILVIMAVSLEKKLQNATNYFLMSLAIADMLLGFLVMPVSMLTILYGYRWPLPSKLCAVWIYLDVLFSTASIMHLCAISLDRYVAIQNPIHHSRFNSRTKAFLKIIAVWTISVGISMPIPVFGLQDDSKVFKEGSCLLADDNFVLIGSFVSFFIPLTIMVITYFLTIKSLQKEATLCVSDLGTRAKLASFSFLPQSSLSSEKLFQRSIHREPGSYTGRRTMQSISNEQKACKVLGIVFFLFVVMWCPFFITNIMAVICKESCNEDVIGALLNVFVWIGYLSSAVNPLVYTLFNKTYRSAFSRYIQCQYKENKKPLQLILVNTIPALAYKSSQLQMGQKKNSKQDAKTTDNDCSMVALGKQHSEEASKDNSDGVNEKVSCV
T3 sequence (P35367 whole entry): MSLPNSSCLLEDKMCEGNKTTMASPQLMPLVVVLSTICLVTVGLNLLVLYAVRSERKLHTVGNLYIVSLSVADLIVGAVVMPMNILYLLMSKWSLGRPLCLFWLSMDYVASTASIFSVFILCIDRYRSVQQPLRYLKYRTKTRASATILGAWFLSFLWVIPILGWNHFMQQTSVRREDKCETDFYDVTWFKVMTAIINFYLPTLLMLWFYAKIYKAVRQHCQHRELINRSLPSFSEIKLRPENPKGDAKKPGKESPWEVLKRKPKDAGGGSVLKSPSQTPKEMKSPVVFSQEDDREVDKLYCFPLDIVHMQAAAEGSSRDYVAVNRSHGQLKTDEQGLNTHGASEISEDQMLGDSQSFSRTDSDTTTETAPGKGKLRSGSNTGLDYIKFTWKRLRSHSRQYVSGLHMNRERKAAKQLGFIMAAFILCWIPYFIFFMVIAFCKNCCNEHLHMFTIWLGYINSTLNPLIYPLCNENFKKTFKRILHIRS
T1 sequence (P50406 whole entry): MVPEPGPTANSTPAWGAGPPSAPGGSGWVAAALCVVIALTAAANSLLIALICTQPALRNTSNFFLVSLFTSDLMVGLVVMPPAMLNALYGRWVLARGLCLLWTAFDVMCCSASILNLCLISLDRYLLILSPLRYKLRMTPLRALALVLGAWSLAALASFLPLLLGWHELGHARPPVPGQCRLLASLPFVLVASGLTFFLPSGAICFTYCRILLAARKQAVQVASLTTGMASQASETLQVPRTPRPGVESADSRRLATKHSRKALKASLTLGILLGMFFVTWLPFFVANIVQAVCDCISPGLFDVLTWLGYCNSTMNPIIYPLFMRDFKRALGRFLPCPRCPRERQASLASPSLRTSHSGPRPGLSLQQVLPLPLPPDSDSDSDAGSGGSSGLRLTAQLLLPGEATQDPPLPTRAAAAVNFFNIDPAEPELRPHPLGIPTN

| Structure (SMILES) | inhibition at 1 µM [1] [%] | inhibition at 1 µM [2] [%] | inhibition at 1 µM [3] [%] | inhibition at 1 µM [4] [%] |
| --- | --- | --- | --- | --- |
| CN1C2CCC1c1c(n(CCC(N)=O)c3ccc(Cl)cc13)C2 (centres unmarked) [Compound 73] | -4 | 5 | 10 | -9 |
| CN1C2CCC1c1c(n(CCc3ccc(C(F)(F)F)nc3)c3cc(F)c(Cl)cc13)C2 (centres unmarked) [Compound 77] | 21 | -8 | 32 | 26 |
| Cc1ccc(CCn2c3c(c4cc(Cl)ccc42)C2CCC(C3)N2C)cn1 (centres unmarked) [Compound 79] | 10 | 13 | 93 | 28 |
| CN1C2CCC1c1c(n(CCc3cccnc3)c3ccc(Cl)cc13)C2 (centres unmarked) [Compound 80] | 6 | 16 | 94 | 33 |
| Cc1ccc2c(c1)c1c(n2CCc2cnc(C)nc2)CC2CCC1N2C (centres unmarked) [Compound 81] | 12 | 25 | 51 | -12 |
| Cc1ncc(CCn2c3c(c4cc(Cl)ccc42)C2CCC(C3)N2C)cn1 (centres unmarked) [Compound 82] | 13 | 60 | 44 | -16 |
| COc1ccc(CCn2c3c(c4cc(C)ccc42)C2CCC(C3)N2C)cc1 (centres unmarked) [Compound 83] | 23 | 82 | 98 | 71 |
| COc1ccc(CCn2c3c(c4cc(Cl)ccc42)C2CCC(C3)N2C)cc1 (centres unmarked) [Compound 84] | 13 | 93 | 83 | 77 |
| Cc1ccc2c(c1)c1c(n2CCCc2ccc(Cl)cc2)CC2CCC1N2C (centres unmarked) [Compound 85] | 52 | 89 | 99 | 95 |
| Cc1ccc2c(c1)c1c(n2CCc2cccnc2)CC2CCC1N2C (centres unmarked) [Compound 86] | 60 | 72 | 99 | 64 |
| CN1C2CCC1c1c(n(CCc3cncc(Cl)c3)c3ccc(Cl)cc13)C2 (centres unmarked) [Compound 87] | 23 | 30 | 96 | 51 |
| Cc1ccc2c(c1)c1c(n2CCc2cncc(Cl)c2)CC2CCC1N2C (centres unmarked) [Compound 88] | 25 | 31 | 95 | 55 |
| Cc1cncc(CCn2c3c(c4cc(Cl)ccc42)C2CCC(C3)N2C)c1 (centres unmarked) [Compound 89] | 10 | 26 | 92 | 27 |
| Cc1cncc(CCn2c3c(c4cc(C)ccc42)C2CCC(C3)N2C)c1 (centres unmarked) [Compound 90] | 6 | 27 | 93 | 30 |
| Cc1ccc2c(c1)c1c(n2CC(O)c2ccc(C)nc2)CC2CCC1N2C (centres unmarked) [Compound 91] | -5 | -4 | 51 | 2 |
| Cc1ccc(CCn2c3c(c4ccccc42)C2CCC(C3)N2C)cn1 (centres unmarked) [Compound 92] | 3 | 9 | 54 | 16 |
| Cc1ccc2c(c1)c1c(n2CC(=O)N2CCCCC2)CC2CCC1N2C (centres unmarked) [Compound 93] | -4 | 7 | 4 | -12 |
| CN1[C@@H]2CC[C@H]1c1c(n(CCc3ccc(F)cc3)c3ccc(F)cc13)C2 [Compound 94, (+)-(7S,10R)-2-Fluoro-5-(4-fluorophenethyl)-11-methyl-5,6,7,8,9,10-hexahydro-7,10-iminocyclohept[b]indole] | 21 | 75 | 92 | 81 |
| CN1[C@H]2CC[C@@H]1c1c(n(CCc3ccc(F)cc3)c3ccc(F)cc13)C2 [Compound 95, (−)-(7R,10S)-2-Fluoro-5-(4-fluorophenethyl)-11-methyl-5,6,7,8,9,10-hexahydro-7,10-iminocyclohept[b]indole] | 41 | 55 | 55 | 57 |
| CN1[C@@H]2CC[C@H]1c1c(n(CCc3ccc(C(F)(F)F)nc3)c3ccccc13)C2 [Compound 97] | 8 | 97 | 26 | 25 |
| CN1[C@@H]2CC[C@H]1c1c(n(CC(C)(O)c3ccc(F)cc3)c3ccccc13)C2 (some centres unmarked) [Compound 99] | -2 | 75 | 21 | 73 |
| CN1[C@@H]2CC[C@H]1c1c(n(CC(=O)N3CCCCC3)c3ccccc13)C2 [Compound 101] | 15 | 94 | 48 | 93 |
| Cc1ccc(CCn2c3c(c4ccccc42)[C@@H]2CC[C@H](C3)N2C)cn1 [Compound 102] | -5 | -6 | 52 | 11 |
| Cc1ccc2c(c1)c1c(n2CCC#N)CC2CCC1N2C (centres unmarked) [Compound 103] | 7 | 33 | 85 | 13 |
| CN1C2CCC1c1c(n(CCC#N)c3ccc(Cl)cc13)C2 (centres unmarked) [Compound 107] | -3 | 25 | 72 | 5 |
| CN1C2CCC1c1c(n(CC(=O)c3ccccc3)c3ccc(Cl)cc13)C2 (centres unmarked) [Compound 110] | 48 | 62 | 36 | 83 |
| CN1C2CCC1c1c(n(CC(=O)c3ccc(Cl)cc3)c3ccc(Cl)cc13)C2 (centres unmarked) [Compound 111] | 38 | 81 | 66 | 94 |
| Cc1ccc2c(c1)c1c(n2CCc2nc(-c3ccccc3)cs2)CC2CCC1N2C (centres unmarked) [Compound 114] | 29 | 59 | 93 | 88 |
| C/C(=C\n1c2c(c3cc(C)ccc31)C1CCC(C2)N1C)c1ccc(Cl)cc1 (centres unmarked) [Compound 116] | 10 | 97 | 23 | 90 |
